According to ChEMBL document CHEMBL3259679, “Synthesis of novel tricyclic chromenone-based inhibitors of IRE-1 RNase activity” (J Med Chem, 2014):
The source made the active and inactive calls. The rule behind the calls is not given here.

Experiments:
B-cell [1] = conditions: Mus musculus, 20 uM
[2] = Drug degradation after 12 hrs by LC-MS analysis; type: physicochemical
B-cell [3] = assay: Inhibition of XBP-1s expression in LPS-stimulated wild-type mouse B lymphocytes at 20 uM after 24 hrs by Western blotting analysis
[4] = Upregulation of IRE-1 expression in human Mino cells at 20 uM after 24 hrs by immunoblotting analysis; type: functional, cell-based
[5] = Upregulation of IRE-1 expression in human Jeko cells at 20 uM after 24 hrs by immunoblotting analysis; type: functional, cell-based; conditions: JeKo-1
Mino [6] = conditions: Homo sapiens, 20 uM
JeKo-1 [7] = conditions: Homo sapiens, 20 uM
JeKo-1 [8] = assay: cells; conditions: Homo sapiens, JeKo-1, 24 h
[9] = target: Serine/threonine-protein kinase/endoribonuclease IRE1 (Homo sapiens, UniProt O75460); assay: Inhibition of human recombinant puritin-His-tagged IRE-1 RNase expressed in SF21 cells using XBP-1 RNA stem loop as substrate incubated for 30 mins prior to substrate addition measured after 2 hrs by FRET-suppression assay
[10] = Growth inhibition of human Mino cells after 48 hrs by XTT assay; type: functional
[11] = Growth inhibition of human Jeko cells after 48 hrs by XTT assay; type: functional, JeKo-1
Mino [12] = assay: Induction of apoptosis in human Mino cells assessed as PARP cleavage at 50 uM after 72 hrs by immunoblotting analysis; type: functional, cell-based
JeKo-1 [13] = assay: Induction of apoptosis in human Jeko cells assessed as PARP cleavage at 50 uM after 72 hrs by immunoblotting analysis; type: functional, cell-based

Chain of Serine/threonine-protein kinase/endoribonuclease IRE1 (O75460 whole entry): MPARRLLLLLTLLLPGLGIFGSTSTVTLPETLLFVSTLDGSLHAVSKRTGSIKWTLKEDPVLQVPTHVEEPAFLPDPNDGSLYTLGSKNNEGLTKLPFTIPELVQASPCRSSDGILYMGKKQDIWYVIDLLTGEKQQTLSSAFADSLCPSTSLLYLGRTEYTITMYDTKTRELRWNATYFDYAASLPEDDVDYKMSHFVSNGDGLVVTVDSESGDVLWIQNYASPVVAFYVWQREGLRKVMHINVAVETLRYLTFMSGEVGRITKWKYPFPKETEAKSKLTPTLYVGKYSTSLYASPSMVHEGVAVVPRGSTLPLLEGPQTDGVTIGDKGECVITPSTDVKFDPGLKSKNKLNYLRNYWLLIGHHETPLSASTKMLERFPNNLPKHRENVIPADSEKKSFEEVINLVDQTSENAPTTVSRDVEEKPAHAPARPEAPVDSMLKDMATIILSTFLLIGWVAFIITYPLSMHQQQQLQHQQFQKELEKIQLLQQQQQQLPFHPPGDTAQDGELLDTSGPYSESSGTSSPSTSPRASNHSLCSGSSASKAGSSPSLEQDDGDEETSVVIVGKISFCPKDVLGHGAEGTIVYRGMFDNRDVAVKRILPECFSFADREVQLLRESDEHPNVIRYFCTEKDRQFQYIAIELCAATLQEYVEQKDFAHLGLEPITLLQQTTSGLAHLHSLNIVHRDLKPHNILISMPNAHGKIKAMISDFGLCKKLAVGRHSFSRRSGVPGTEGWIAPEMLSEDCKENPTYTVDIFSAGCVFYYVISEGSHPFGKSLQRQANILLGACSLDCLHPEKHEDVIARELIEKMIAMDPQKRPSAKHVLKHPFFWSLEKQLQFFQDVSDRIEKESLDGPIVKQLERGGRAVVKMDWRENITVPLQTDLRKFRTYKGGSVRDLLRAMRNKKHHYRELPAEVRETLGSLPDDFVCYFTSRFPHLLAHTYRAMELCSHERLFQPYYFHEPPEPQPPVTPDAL

SMILES	inhibition (B-cell [1])	inhibition (B-cell [3])	Activity [4]	Activity [5]	inhibition (Mino [6])	inhibition (JeKo-1 [7])	also measured
C=CCOC(=O)N1CCc2c(c(=O)oc3c(C(=O)OC)c(O)ccc23)C1	inactive	–	–	–	–	–	–
C=CCOC(=O)N1CCc2c(c(=O)oc3c(C4OCCCO4)c(O)ccc23)C1	–	Active	–	–	–	–	Stability [2]: Stable
C=CCOC(=O)N1CCc2c(c(=O)oc3c(C=O)c(O)ccc23)C1	–	Active	Active	Active	Active	Active	–
Cc1cc(=O)oc2c(C=O)c(O)ccc12	–	Active	–	–	–	–	IC50 (JeKo-1 [8]): 1570 nM
C=CCOC(=O)N1CCc2c(c(=O)oc3c(/C=C/C(=O)OCC)c(O)ccc23)C1	inactive	–	–	–	–	–	–
C=CCOC(=O)N1CCc2c(c(=O)oc3c(C=O)c(OCc4ccccc4)ccc23)C1	–	–	–	–	–	–	IC50 [9]: > 20000 nM
C=CCOC(=O)N1CCc2c(c(=O)oc3c(C(=O)O)c(O)ccc23)C1	inactive	–	–	–	–	–	–
CC(=O)N1CCc2c(c(=O)oc3c(C=O)c(O)ccc23)C1	Active	–	Active	Active	Active	Active	–
CN1CCc2c(c(=O)oc3c(C=O)c(O)ccc23)C1	Active	–	Active	Active	Active	Active	GI [10]: 55 µM; GI [11]: 66 µM; Activity (Mino [12]): Active; Activity (JeKo-1 [13]): Active
